{"source": "PubChem BioAssay (NCI)", "test_in_all_cases": "inhibition of tumour cell growth, NCI panel, 48 h", "key": {"786-0 renal": {"system": "786-0 renal"}, "A498 renal": {"system": "A498 renal"}, "A549 NSCLC": {"system": "A549 NSCLC"}, "BT-549 breast": {"system": "BT-549 breast"}, "CAKI-1 renal": {"system": "CAKI-1 renal"}, "CCRF-CEM leukemia": {"system": "CCRF-CEM leukemia"}, "COLO 205 colon": {"system": "COLO 205 colon"}, "DU-145 prostate": {"system": "DU-145 prostate"}, "HCT-116 colon": {"system": "HCT-116 colon"}, "HCT-15 colon": {"system": "HCT-15 colon"}, "HL-60(TB) leukemia": {"system": "HL-60(TB) leukemia"}, "HOP-62 NSCLC": {"system": "HOP-62 NSCLC"}, "HOP-92 NSCLC": {"system": "HOP-92 NSCLC"}, "HS 578T breast": {"system": "HS 578T breast"}, "HT29 colon": {"system": "HT29 colon"}, "IGROV1 ovarian": {"system": "IGROV1 ovarian"}, "K-562 leukemia": {"system": "K-562 leukemia"}, "KM12 colon": {"system": "KM12 colon"}, "LOX IMVI melanoma": {"system": "LOX IMVI melanoma"}, "M14 melanoma": {"system": "M14 melanoma"}, "MALME-3M melanoma": {"system": "MALME-3M melanoma"}, "MDA-MB-231 breast": {"system": "MDA-MB-231 breast"}, "MDA-MB-435": {"system": "MDA-MB-435"}, "MDA-MB-468 breast": {"system": "MDA-MB-468 breast"}, "MOLT-4 leukemia": {"system": "MOLT-4 leukemia"}, "NCI-H23 lung": {"system": "NCI-H23 lung"}, "NCI-H522 lung": {"system": "NCI-H522 lung"}, "NCI/ADR-RES ovarian": {"system": "NCI/ADR-RES ovarian"}, "OVCAR-8 ovarian": {"system": "OVCAR-8 ovarian"}, "PC-3 prostate": {"system": "PC-3 prostate"}, "RPMI-8226 leukemia": {"system": "RPMI-8226 leukemia"}, "RXF 393 renal": {"system": "RXF 393 renal"}, "SF-268 CNS": {"system": "SF-268 CNS"}, "SF-295 CNS": {"system": "SF-295 CNS"}, "SF-539 CNS": {"system": "SF-539 CNS"}, "SK-MEL-2 melanoma": {"system": "SK-MEL-2 melanoma"}, "SK-MEL-28 melanoma": {"system": "SK-MEL-28 melanoma"}, "SK-OV-3 ovarian": {"system": "SK-OV-3 ovarian"}, "SNB-19 CNS": {"system": "SNB-19 CNS"}, "SNB-75 CNS": {"system": "SNB-75 CNS"}, "SR leukemia": {"system": "SR leukemia"}, "SW-620 colon": {"system": "SW-620 colon"}, "TK-10 renal": {"system": "TK-10 renal"}, "U251 CNS": {"system": "U251 CNS"}, "UACC-257 melanoma": {"system": "UACC-257 melanoma"}, "UACC-62 melanoma": {"system": "UACC-62 melanoma"}}, "note": "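Cultured in 96-well plates, cells were exposed to test compound for 48 hours across five concentrations. GI50 is the concentration that inhibits growth by half. TGI: concentration producing complete growth inhibition.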"}
{"smiles": "Cc1noc2c(Cc3ccccc3)nn(CC(=O)N/N=C/c3ccc(Cl)cc3)c(=O)c12", "values": [{"measurement": "GI50", "setting": "786-0 renal", "value": 1.94, "unit": "µM"}, {"measurement": "TGI", "setting": "786-0 renal", "value": 3.84, "unit": "µM"}, {"measurement": "GI50", "setting": "A498 renal", "value": 1.65, "unit": "µM"}, {"measurement": "TGI", "setting": "A498 renal", "value": 3.11, "unit": "µM"}, {"measurement": "GI50", "setting": "A549 NSCLC", "value": 3.87, "unit": "µM"}, {"measurement": "TGI", "setting": "A549 NSCLC", "value": "> 100", "unit": "µM"}, {"measurement": "GI50", "setting": "BT-549 breast", "value": 23.8, "unit": "µM"}, {"measurement": "TGI", "setting": "BT-549 breast", "value": 90.6, "unit": "µM"}, {"measurement": "GI50", "setting": "CAKI-1 renal", "value": 2.88, "unit": "µM"}, {"measurement": "TGI", "setting": "CAKI-1 renal", "value": 11.1, "unit": "µM"}, {"measurement": "GI50", "setting": "CCRF-CEM leukemia", "value": 21.1, "unit": "µM"}, {"measurement": "TGI", "setting": "CCRF-CEM leukemia", "value": "> 100", "unit": "µM"}, {"measurement": "GI50", "setting": "COLO 205 colon", "value": 5.04, "unit": "µM"}, {"measurement": "TGI", "setting": "COLO 205 colon", "value": "> 100", "unit": "µM"}, {"measurement": "GI50", "setting": "DU-145 prostate", "value": "> 100", "unit": "µM"}, {"measurement": "TGI", "setting": "DU-145 prostate", "value": "> 100", "unit": "µM"}, {"measurement": "GI50", "setting": "HCT-116 colon", "value": 3.16, "unit": "µM"}, {"measurement": "TGI", "setting": "HCT-116 colon", "value": "> 100", "unit": "µM"}, {"measurement": "GI50", "setting": "HCT-15 colon", "value": "> 100", "unit": "µM"}, {"measurement": "TGI", "setting": "HCT-15 colon", "value": "> 100", "unit": "µM"}, {"measurement": "GI50", "setting": "HL-60(TB) leukemia", "value": "> 100", "unit": "µM"}, {"measurement": "TGI", "setting": "HL-60(TB) leukemia", "value": "> 100", "unit": "µM"}, {"measurement": "GI50", "setting": "HOP-62 NSCLC", "value": 2.06, "unit": "µM"}, {"measurement": "TGI", "setting": "HOP-62 NSCLC", "value": 4.97, "unit": "µM"}, {"measurement": "GI50", "setting": "HOP-92 NSCLC", "value": 3.01, "unit": "µM"}, {"measurement": "TGI", "setting": "HOP-92 NSCLC", "value": 16.6, "unit": "µM"}, {"measurement": "GI50", "setting": "HS 578T breast", "value": 2.31, "unit": "µM"}, {"measurement": "TGI", "setting": "HS 578T breast", "value": 6.23, "unit": "µM"}, {"measurement": "GI50", "setting": "HT29 colon", "value": "> 100", "unit": "µM"}, {"measurement": "TGI", "setting": "HT29 colon", "value": "> 100", "unit": "µM"}, {"measurement": "GI50", "setting": "IGROV1 ovarian", "value": 6.95, "unit": "µM"}, {"measurement": "TGI", "setting": "IGROV1 ovarian", "value": 31.2, "unit": "µM"}, {"measurement": "GI50", "setting": "K-562 leukemia", "value": 88.6, "unit": "µM"}, {"measurement": "TGI", "setting": "K-562 leukemia", "value": "> 100", "unit": "µM"}, {"measurement": "GI50", "setting": "KM12 colon", "value": "> 100", "unit": "µM"}, {"measurement": "TGI", "setting": "KM12 colon", "value": "> 100", "unit": "µM"}, {"measurement": "GI50", "setting": "LOX IMVI melanoma", "value": 5.61, "unit": "µM"}, {"measurement": "TGI", "setting": "LOX IMVI melanoma", "value": "> 100", "unit": "µM"}, {"measurement": "GI50", "setting": "M14 melanoma", "value": 43.6, "unit": "µM"}, {"measurement": "TGI", "setting": "M14 melanoma", "value": "> 100", "unit": "µM"}, {"measurement": "GI50", "setting": "MALME-3M melanoma", "value": 4.23, "unit": "µM"}, {"measurement": "TGI", "setting": "MALME-3M melanoma", "value": 29.1, "unit": "µM"}, {"measurement": "GI50", "setting": "MDA-MB-231 breast", "value": 2.59, "unit": "µM"}, {"measurement": "TGI", "setting": "MDA-MB-231 breast", "value": 7.3, "unit": "µM"}, {"measurement": "GI50", "setting": "MDA-MB-435", "value": "> 100", "unit": "µM"}, {"measurement": "TGI", "setting": "MDA-MB-435", "value": "> 100", "unit": "µM"}, {"measurement": "GI50", "setting": "MDA-MB-468 breast", "value": 8.11, "unit": "µM"}, {"measurement": "TGI", "setting": "MDA-MB-468 breast", "value": 36.2, "unit": "µM"}, {"measurement": "GI50", "setting": "MOLT-4 leukemia", "value": "> 100", "unit": "µM"}, {"measurement": "TGI", "setting": "MOLT-4 leukemia", "value": "> 100", "unit": "µM"}, {"measurement": "GI50", "setting": "NCI-H23 lung", "value": 10.2, "unit": "µM"}, {"measurement": "TGI", "setting": "NCI-H23 lung", "value": 53.7, "unit": "µM"}, {"measurement": "GI50", "setting": "NCI-H522 lung", "value": 15.4, "unit": "µM"}, {"measurement": "TGI", "setting": "NCI-H522 lung", "value": "> 100", "unit": "µM"}, {"measurement": "GI50", "setting": "NCI/ADR-RES ovarian", "value": 4.93, "unit": "µM"}, {"measurement": "TGI", "setting": "NCI/ADR-RES ovarian", "value": "> 100", "unit": "µM"}, {"measurement": "GI50", "setting": "OVCAR-8 ovarian", "value": 3.18, "unit": "µM"}, {"measurement": "TGI", "setting": "OVCAR-8 ovarian", "value": "> 100", "unit": "µM"}, {"measurement": "GI50", "setting": "PC-3 prostate", "value": "> 100", "unit": "µM"}, {"measurement": "TGI", "setting": "PC-3 prostate", "value": "> 100", "unit": "µM"}, {"measurement": "GI50", "setting": "RPMI-8226 leukemia", "value": 8.98, "unit": "µM"}, {"measurement": "TGI", "setting": "RPMI-8226 leukemia", "value": "> 100", "unit": "µM"}, {"measurement": "GI50", "setting": "RXF 393 renal", "value": 2.15, "unit": "µM"}, {"measurement": "TGI", "setting": "RXF 393 renal", "value": 6.87, "unit": "µM"}, {"measurement": "GI50", "setting": "SF-268 CNS", "value": 7.82, "unit": "µM"}, {"measurement": "TGI", "setting": "SF-268 CNS", "value": "> 100", "unit": "µM"}, {"measurement": "GI50", "setting": "SF-295 CNS", "value": 3.19, "unit": "µM"}, {"measurement": "TGI", "setting": "SF-295 CNS", "value": 8.64, "unit": "µM"}, {"measurement": "GI50", "setting": "SF-539 CNS", "value": 14.1, "unit": "µM"}, {"measurement": "TGI", "setting": "SF-539 CNS", "value": 35.9, "unit": "µM"}, {"measurement": "GI50", "setting": "SK-MEL-2 melanoma", "value": 19.1, "unit": "µM"}, {"measurement": "TGI", "setting": "SK-MEL-2 melanoma", "value": 38.4, "unit": "µM"}, {"measurement": "GI50", "setting": "SK-MEL-28 melanoma", "value": "> 100", "unit": "µM"}, {"measurement": "TGI", "setting": "SK-MEL-28 melanoma", "value": "> 100", "unit": "µM"}, {"measurement": "GI50", "setting": "SK-OV-3 ovarian", "value": 2.34, "unit": "µM"}, {"measurement": "TGI", "setting": "SK-OV-3 ovarian", "value": 5.85, "unit": "µM"}, {"measurement": "GI50", "setting": "SNB-19 CNS", "value": 8.48, "unit": "µM"}, {"measurement": "TGI", "setting": "SNB-19 CNS", "value": 26.7, "unit": "µM"}, {"measurement": "GI50", "setting": "SNB-75 CNS", "value": 1.59, "unit": "µM"}, {"measurement": "TGI", "setting": "SNB-75 CNS", "value": 4.36, "unit": "µM"}, {"measurement": "GI50", "setting": "SR leukemia", "value": 31.2, "unit": "µM"}, {"measurement": "TGI", "setting": "SR leukemia", "value": "> 100", "unit": "µM"}, {"measurement": "GI50", "setting": "SW-620 colon", "value": "> 100", "unit": "µM"}, {"measurement": "TGI", "setting": "SW-620 colon", "value": "> 100", "unit": "µM"}, {"measurement": "GI50", "setting": "TK-10 renal", "value": 1.9, "unit": "µM"}, {"measurement": "TGI", "setting": "TK-10 renal", "value": 4.74, "unit": "µM"}, {"measurement": "GI50", "setting": "U251 CNS", "value": 3.64, "unit": "µM"}, {"measurement": "TGI", "setting": "U251 CNS", "value": "> 100", "unit": "µM"}, {"measurement": "GI50", "setting": "UACC-257 melanoma", "value": "> 100", "unit": "µM"}, {"measurement": "TGI", "setting": "UACC-257 melanoma", "value": "> 100", "unit": "µM"}, {"measurement": "GI50", "setting": "UACC-62 melanoma", "value": 18.3, "unit": "µM"}, {"measurement": "TGI", "setting": "UACC-62 melanoma", "value": 86, "unit": "µM"}]}
